# From ChEMBL document CHEMBL3991601, “The target landscape of clinical kinase drugs” (Science, 2017)
# Activity calls are given as the source filed them. Cut-off read from the data, not from the text of the source, for most assays here: actives have a measured Kd and inactives only a lower limit.
# Biological target: TRAF2 and NCK-interacting protein kinase (Homo sapiens, UniProt Q9UKE5)
# Note: in the data inactive means no Kd found up to 30 µM.
# TRAF2 and NCK-interacting protein kinase, sequence (Q9UKE5 whole entry): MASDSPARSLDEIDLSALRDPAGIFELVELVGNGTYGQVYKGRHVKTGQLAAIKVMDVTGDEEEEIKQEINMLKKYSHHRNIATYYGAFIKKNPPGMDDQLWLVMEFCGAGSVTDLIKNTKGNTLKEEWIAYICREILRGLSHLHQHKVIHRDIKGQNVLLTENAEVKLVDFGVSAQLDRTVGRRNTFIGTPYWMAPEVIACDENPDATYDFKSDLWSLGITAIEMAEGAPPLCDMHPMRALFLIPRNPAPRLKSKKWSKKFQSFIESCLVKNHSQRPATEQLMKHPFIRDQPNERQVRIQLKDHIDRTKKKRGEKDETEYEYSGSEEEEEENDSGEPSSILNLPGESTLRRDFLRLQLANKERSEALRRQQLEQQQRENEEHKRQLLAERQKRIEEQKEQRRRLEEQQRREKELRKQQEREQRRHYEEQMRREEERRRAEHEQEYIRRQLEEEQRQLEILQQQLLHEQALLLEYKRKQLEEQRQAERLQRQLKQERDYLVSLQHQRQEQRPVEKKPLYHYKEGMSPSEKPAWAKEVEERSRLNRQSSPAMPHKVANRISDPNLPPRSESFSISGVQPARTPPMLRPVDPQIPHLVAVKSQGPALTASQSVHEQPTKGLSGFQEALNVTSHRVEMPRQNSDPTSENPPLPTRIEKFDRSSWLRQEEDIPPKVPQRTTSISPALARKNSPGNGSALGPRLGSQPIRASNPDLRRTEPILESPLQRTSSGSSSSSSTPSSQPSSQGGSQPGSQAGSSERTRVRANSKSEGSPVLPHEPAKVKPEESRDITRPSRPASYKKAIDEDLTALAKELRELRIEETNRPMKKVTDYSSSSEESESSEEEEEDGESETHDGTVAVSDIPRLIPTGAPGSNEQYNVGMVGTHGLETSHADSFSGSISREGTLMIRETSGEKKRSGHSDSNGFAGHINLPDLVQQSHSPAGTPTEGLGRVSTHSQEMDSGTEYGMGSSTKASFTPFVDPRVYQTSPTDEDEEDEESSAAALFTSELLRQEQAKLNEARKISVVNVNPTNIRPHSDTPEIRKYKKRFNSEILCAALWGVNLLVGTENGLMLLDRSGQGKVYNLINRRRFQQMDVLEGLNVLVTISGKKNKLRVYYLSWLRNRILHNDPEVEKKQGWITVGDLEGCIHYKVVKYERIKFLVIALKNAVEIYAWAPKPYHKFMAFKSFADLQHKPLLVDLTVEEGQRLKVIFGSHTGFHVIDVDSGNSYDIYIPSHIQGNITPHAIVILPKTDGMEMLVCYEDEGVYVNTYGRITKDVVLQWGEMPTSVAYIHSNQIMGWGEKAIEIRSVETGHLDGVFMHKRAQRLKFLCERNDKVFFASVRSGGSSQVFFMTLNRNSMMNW
row,SMILES,Kd
1,COc1cc(N2CCC(N3CCN(C)CC3)CC2)ccc1Nc1ncnc(Nc2ccccc2S(=O)(=O)C(C)C)n1 [ASP-3026],> 30 µM (inactive)
2,CNS(=O)(=O)Nc1nccc(Cc2c(C)c3ccc(Oc4ncccn4)cc3oc2=O)c1F [AVUTOMETINIB],> 30 µM (inactive)
3,COc1cc(CCc2cc(NC(=O)c3ccc(N4C[C@@H](C)N[C@@H](C)C4)cc3)n[nH]2)cc(OC)c1 [AZD-4547],1.39 µM
4,CCc1cnn2c(NCc3ccc[n+]([O-])c3)cc(N3CCCC[C@H]3CCO)nc12 [DINACICLIB],> 30 µM (inactive)
5,CC[C@H](Nc1ncnc2[nH]cnc12)c1nc2cccc(F)c2c(=O)n1-c1ccccc1 [IDELALISIB],> 30 µM (inactive)
6,C1=C/COCc2cc(ccc2OCCN2CCCC2)Nc2nccc(n2)-c2cccc(c2)COC/1 [PACRITINIB],0.089 µM

# Biological target: GTP-binding nuclear protein Ran (Homo sapiens, UniProt P62826)
row,SMILES,Kd
1,COc1cc(N2CCC(N3CCN(C)CC3)CC2)ccc1Nc1ncnc(Nc2ccccc2S(=O)(=O)C(C)C)n1 [ASP-3026],> 30 µM (inactive)
2,CNS(=O)(=O)Nc1nccc(Cc2c(C)c3ccc(Oc4ncccn4)cc3oc2=O)c1F [AVUTOMETINIB],> 30 µM (inactive)
3,COc1cc(CCc2cc(NC(=O)c3ccc(N4C[C@@H](C)N[C@@H](C)C4)cc3)n[nH]2)cc(OC)c1 [AZD-4547],> 30 µM (inactive)
4,CCc1cnn2c(NCc3ccc[n+]([O-])c3)cc(N3CCCC[C@H]3CCO)nc12 [DINACICLIB],> 30 µM (inactive)
5,C1=C/COCc2cc(ccc2OCCN2CCCC2)Nc2nccc(n2)-c2cccc(c2)COC/1 [PACRITINIB],> 30 µM (inactive)

# Biological target: T1, Scaffold protein ILK (Homo sapiens, UniProt Q13418)
# T1 sequence (Q13418 whole entry): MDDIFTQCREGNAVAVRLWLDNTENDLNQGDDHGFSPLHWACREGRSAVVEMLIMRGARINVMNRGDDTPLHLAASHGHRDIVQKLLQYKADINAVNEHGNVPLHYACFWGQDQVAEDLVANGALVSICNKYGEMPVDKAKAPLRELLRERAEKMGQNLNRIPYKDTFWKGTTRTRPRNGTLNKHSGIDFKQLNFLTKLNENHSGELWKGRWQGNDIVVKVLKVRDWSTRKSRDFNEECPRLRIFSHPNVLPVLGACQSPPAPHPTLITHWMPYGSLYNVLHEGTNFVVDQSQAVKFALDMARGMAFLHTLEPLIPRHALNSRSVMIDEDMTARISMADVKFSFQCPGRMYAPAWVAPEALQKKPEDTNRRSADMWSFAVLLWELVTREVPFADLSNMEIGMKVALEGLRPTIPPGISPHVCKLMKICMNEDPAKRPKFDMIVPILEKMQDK
row,SMILES,Kd
1,COc1cc(N2CCC(N3CCN(C)CC3)CC2)ccc1Nc1ncnc(Nc2ccccc2S(=O)(=O)C(C)C)n1 [ASP-3026],> 30 µM (inactive)
2,CNS(=O)(=O)Nc1nccc(Cc2c(C)c3ccc(Oc4ncccn4)cc3oc2=O)c1F [AVUTOMETINIB],> 30 µM (inactive)
3,COc1cc(CCc2cc(NC(=O)c3ccc(N4C[C@@H](C)N[C@@H](C)C4)cc3)n[nH]2)cc(OC)c1 [AZD-4547],> 30 µM (inactive)
4,CCc1cnn2c(NCc3ccc[n+]([O-])c3)cc(N3CCCC[C@H]3CCO)nc12 [DINACICLIB],> 30 µM (inactive)
5,CC[C@H](Nc1ncnc2[nH]cnc12)c1nc2cccc(F)c2c(=O)n1-c1ccccc1 [IDELALISIB],> 30 µM (inactive)

# Biological target: T2, Ephrin type-B receptor 6 (Homo sapiens, UniProt O15197)
# T2 sequence (O15197 whole entry): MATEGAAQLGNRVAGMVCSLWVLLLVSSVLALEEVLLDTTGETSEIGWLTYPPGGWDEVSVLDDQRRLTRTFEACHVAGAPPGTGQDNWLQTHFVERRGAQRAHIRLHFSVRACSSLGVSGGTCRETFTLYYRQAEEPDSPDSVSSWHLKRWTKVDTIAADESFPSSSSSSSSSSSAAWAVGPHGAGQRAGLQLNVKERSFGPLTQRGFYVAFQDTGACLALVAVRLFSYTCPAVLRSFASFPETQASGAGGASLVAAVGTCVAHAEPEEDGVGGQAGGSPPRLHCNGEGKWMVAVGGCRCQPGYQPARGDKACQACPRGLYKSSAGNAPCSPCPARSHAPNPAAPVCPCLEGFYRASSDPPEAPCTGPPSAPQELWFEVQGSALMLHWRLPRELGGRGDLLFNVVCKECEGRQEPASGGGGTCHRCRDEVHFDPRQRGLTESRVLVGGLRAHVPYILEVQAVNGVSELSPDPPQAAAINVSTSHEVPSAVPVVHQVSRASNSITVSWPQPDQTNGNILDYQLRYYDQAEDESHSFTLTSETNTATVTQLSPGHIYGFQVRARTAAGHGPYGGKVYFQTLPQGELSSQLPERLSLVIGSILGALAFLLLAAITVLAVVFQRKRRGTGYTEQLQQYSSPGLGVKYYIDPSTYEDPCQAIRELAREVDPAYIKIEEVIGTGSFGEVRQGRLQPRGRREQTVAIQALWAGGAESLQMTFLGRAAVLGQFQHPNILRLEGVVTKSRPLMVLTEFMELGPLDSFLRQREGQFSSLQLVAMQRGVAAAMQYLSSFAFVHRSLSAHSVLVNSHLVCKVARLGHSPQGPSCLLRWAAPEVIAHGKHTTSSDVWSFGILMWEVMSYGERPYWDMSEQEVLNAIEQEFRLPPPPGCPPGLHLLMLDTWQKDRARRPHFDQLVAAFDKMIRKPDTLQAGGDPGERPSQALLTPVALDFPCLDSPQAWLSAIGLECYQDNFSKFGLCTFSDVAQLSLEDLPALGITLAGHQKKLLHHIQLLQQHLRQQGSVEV
row,SMILES,Kd
1,COc1cc(N2CCC(N3CCN(C)CC3)CC2)ccc1Nc1ncnc(Nc2ccccc2S(=O)(=O)C(C)C)n1 [ASP-3026],> 30 µM (inactive)
2,CNS(=O)(=O)Nc1nccc(Cc2c(C)c3ccc(Oc4ncccn4)cc3oc2=O)c1F [AVUTOMETINIB],> 30 µM (inactive)
3,COc1cc(CCc2cc(NC(=O)c3ccc(N4C[C@@H](C)N[C@@H](C)C4)cc3)n[nH]2)cc(OC)c1 [AZD-4547],> 30 µM (inactive)
4,CCc1cnn2c(NCc3ccc[n+]([O-])c3)cc(N3CCCC[C@H]3CCO)nc12 [DINACICLIB],> 30 µM (inactive)
5,CC[C@H](Nc1ncnc2[nH]cnc12)c1nc2cccc(F)c2c(=O)n1-c1ccccc1 [IDELALISIB],> 30 µM (inactive)
6,C1=C/COCc2cc(ccc2OCCN2CCCC2)Nc2nccc(n2)-c2cccc(c2)COC/1 [PACRITINIB],> 30 µM (inactive)

# Biological target: T3, Mitogen-activated protein kinase kinase kinase 3 (Homo sapiens, UniProt Q99759)
# T3 sequence (Q99759 whole entry): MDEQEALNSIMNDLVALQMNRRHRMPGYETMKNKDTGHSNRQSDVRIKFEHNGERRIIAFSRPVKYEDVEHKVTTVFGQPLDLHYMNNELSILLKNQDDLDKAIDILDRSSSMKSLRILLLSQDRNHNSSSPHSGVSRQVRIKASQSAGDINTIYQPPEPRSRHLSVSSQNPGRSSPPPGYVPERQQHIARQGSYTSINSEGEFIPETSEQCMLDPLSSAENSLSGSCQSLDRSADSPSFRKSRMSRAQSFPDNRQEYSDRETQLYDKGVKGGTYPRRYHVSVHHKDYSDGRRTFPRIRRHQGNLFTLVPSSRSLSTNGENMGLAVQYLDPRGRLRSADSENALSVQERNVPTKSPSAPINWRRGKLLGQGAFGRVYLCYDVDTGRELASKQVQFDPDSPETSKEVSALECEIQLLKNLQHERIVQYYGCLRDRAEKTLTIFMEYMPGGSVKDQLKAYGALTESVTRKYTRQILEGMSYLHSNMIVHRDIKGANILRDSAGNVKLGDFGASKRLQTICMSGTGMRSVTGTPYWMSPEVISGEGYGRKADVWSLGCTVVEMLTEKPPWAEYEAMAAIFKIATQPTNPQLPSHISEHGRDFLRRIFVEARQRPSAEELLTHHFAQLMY
row,SMILES,Kd
1,COc1cc(N2CCC(N3CCN(C)CC3)CC2)ccc1Nc1ncnc(Nc2ccccc2S(=O)(=O)C(C)C)n1 [ASP-3026],> 30 µM (inactive)
2,CNS(=O)(=O)Nc1nccc(Cc2c(C)c3ccc(Oc4ncccn4)cc3oc2=O)c1F [AVUTOMETINIB],> 30 µM (inactive)
3,COc1cc(CCc2cc(NC(=O)c3ccc(N4C[C@@H](C)N[C@@H](C)C4)cc3)n[nH]2)cc(OC)c1 [AZD-4547],> 30 µM (inactive)
4,CCc1cnn2c(NCc3ccc[n+]([O-])c3)cc(N3CCCC[C@H]3CCO)nc12 [DINACICLIB],> 30 µM (inactive)
5,CC[C@H](Nc1ncnc2[nH]cnc12)c1nc2cccc(F)c2c(=O)n1-c1ccccc1 [IDELALISIB],> 30 µM (inactive)
6,C1=C/COCc2cc(ccc2OCCN2CCCC2)Nc2nccc(n2)-c2cccc(c2)COC/1 [PACRITINIB],> 30 µM (inactive)

# Biological target: Cyclin-dependent kinase 12 (Homo sapiens, UniProt Q9NYV4)
# Sequence (Q9NYV4 whole entry): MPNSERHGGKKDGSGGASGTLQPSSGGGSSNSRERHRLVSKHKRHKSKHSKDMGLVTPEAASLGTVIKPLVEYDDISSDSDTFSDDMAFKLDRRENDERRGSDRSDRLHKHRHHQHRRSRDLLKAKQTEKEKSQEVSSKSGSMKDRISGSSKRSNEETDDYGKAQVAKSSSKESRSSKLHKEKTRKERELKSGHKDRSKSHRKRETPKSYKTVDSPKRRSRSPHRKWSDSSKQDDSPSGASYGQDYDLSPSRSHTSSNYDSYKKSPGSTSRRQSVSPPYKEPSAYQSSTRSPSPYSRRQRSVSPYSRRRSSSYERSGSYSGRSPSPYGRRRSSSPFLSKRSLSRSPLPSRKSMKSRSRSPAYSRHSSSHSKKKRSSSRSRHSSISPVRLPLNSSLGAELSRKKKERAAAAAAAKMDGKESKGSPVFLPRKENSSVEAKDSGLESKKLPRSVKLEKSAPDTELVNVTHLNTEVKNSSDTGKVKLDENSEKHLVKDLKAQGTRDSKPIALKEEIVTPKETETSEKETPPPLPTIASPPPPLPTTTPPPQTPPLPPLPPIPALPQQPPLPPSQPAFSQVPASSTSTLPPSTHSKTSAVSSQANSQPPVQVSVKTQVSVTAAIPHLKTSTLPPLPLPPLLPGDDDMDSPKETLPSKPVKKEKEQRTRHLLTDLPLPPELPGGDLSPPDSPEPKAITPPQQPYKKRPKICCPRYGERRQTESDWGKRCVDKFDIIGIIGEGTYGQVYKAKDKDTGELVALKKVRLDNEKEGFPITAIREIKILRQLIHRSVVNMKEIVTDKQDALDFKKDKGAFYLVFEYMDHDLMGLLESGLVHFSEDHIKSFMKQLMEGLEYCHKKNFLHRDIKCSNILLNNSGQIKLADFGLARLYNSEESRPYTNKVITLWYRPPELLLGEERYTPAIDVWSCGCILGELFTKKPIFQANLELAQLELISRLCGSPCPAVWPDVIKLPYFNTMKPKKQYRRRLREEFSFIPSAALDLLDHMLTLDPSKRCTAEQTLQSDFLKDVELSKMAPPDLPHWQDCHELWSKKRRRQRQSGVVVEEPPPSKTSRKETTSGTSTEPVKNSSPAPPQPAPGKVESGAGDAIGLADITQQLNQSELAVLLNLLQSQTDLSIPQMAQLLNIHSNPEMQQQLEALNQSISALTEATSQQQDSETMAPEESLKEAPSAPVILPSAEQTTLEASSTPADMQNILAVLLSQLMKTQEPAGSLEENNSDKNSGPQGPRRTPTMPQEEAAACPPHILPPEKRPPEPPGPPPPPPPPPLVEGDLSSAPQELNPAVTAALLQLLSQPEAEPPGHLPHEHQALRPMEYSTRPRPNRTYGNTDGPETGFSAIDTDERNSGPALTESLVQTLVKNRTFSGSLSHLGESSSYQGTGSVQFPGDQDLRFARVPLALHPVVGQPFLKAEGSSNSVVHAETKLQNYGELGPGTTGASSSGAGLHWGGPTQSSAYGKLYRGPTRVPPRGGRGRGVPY
row,SMILES,Kd
1,COc1cc(N2CCC(N3CCN(C)CC3)CC2)ccc1Nc1ncnc(Nc2ccccc2S(=O)(=O)C(C)C)n1 [ASP-3026],> 30 µM (inactive)
2,CNS(=O)(=O)Nc1nccc(Cc2c(C)c3ccc(Oc4ncccn4)cc3oc2=O)c1F [AVUTOMETINIB],> 30 µM (inactive)
3,COc1cc(CCc2cc(NC(=O)c3ccc(N4C[C@@H](C)N[C@@H](C)C4)cc3)n[nH]2)cc(OC)c1 [AZD-4547],> 30 µM (inactive)
4,CC[C@H](Nc1ncnc2[nH]cnc12)c1nc2cccc(F)c2c(=O)n1-c1ccccc1 [IDELALISIB],> 30 µM (inactive)
5,C1=C/COCc2cc(ccc2OCCN2CCCC2)Nc2nccc(n2)-c2cccc(c2)COC/1 [PACRITINIB],> 30 µM (inactive)

# Biological target: DnaJ homolog subfamily A member 1 (Homo sapiens, UniProt P31689)
# Sequence (P31689 whole entry): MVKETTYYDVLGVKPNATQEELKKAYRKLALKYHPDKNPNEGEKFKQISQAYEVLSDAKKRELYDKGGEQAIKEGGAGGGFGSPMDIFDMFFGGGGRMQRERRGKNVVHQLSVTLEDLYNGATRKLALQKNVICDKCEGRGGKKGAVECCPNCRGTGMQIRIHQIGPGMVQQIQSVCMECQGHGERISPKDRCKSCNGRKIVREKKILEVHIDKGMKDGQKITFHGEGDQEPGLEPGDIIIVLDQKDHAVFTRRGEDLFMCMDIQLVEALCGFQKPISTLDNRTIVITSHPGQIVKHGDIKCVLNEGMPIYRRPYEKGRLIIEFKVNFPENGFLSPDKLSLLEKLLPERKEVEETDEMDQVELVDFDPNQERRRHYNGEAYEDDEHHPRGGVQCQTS
row,SMILES,Kd
1,COc1cc(N2CCC(N3CCN(C)CC3)CC2)ccc1Nc1ncnc(Nc2ccccc2S(=O)(=O)C(C)C)n1 [ASP-3026],> 30 µM (inactive)
2,CNS(=O)(=O)Nc1nccc(Cc2c(C)c3ccc(Oc4ncccn4)cc3oc2=O)c1F [AVUTOMETINIB],> 30 µM (inactive)
3,COc1cc(CCc2cc(NC(=O)c3ccc(N4C[C@@H](C)N[C@@H](C)C4)cc3)n[nH]2)cc(OC)c1 [AZD-4547],> 30 µM (inactive)
4,CCc1cnn2c(NCc3ccc[n+]([O-])c3)cc(N3CCCC[C@H]3CCO)nc12 [DINACICLIB],> 30 µM (inactive)
5,CC[C@H](Nc1ncnc2[nH]cnc12)c1nc2cccc(F)c2c(=O)n1-c1ccccc1 [IDELALISIB],> 30 µM (inactive)
6,C1=C/COCc2cc(ccc2OCCN2CCCC2)Nc2nccc(n2)-c2cccc(c2)COC/1 [PACRITINIB],> 30 µM (inactive)
